Read-outs that look alike come from different tables or passages of the source.
What was measured:
[1] = tested on: subjects with chronic rheumatic pain; assay: Treatment of chronic rheumatic or fibromyalgia pain; type: in vivo, human
Experimental: Subject 1 was treated with 2 mg taken once daily with the first daily dose of oxycodone. Subject 2 (person twelve) was treated with 2 mg or 5 mg taken once daily, in conjunction with oxycodone. Subject 3 (person five) was treated with 2 mg, 5 mg or 10 mg taken once daily with PERCOCET.

[2] = tested on: subjects with CLL; assay: Treatment of chronic lymphocytic leukemia; type: in vivo, human; settings: Subject 1 (person eleven), 2 mg, one month; from 25,000 (rising by 10%/month)
[3] = tested on: subject with prostate cancer; assay: Prostate cancer treatment; type: in vivo, human; settings: person four, daily dose of 2 mg, 3 month period; from 19.1
Experimental: person four was treated with 2 mg taken in the afternoon or evening and followed for 3 months.

[4] = Storage stability of dipyridamole dissolved in propylene glycol; type: physicochemical; settings: 1 year of storage at room temperature
From the text: (§1) Solubility of a compound is known to increase absorption and efficacy. In other exemplary embodiments of the invention, liquid formulations are provided in gel-caps.

[5] = tested on: subject with recurrent, non-streptococcal, non-specific sore throat; assay: Treatment of non-specific recurrent sore throat; type: in vivo, human; settings: person, 29 kg, 1 mg/day before sleep, followed 11 months
Experimental: A person was treated with 1 mg taken before sleep and followed for 11 months in total. […] One mg dose was given based on a weight of 29 kg.

[6] = Solubility of dipyridamole in propylene glycol / water; type: physicochemical
From the text: as §1

[7] = tested on: subjects with xerostomia; assay: Xerostomia treatment; type: in vivo, human; settings: Subject 1 (person twelve), 2 mg
Experimental: Subject 1 (person twelve) and Subject 2 (person three) were treated with varying doses (1, 2, 3, 4, 5 and 10 mg) taken in the morning or evening, for periods of 2 weeks for each dose then continued on optimal dose for 15 months in total.

[8] = tested on: subjects with treatment-refractory insomnia; assay: Dipyridamole in combination with melatonin for insomnia; type: in vivo, human
Experimental: The melatonin dose ranged between 0.25 mg and 10 mg per pill.

[9] = tested on: subjects with keratoconjunctivitis sicca; assay: Keratoconjunctivitis sicca treatment with low dose oral dipyridamole; type: in vivo, human; settings: Subject 1 (person thirteen), 2 mg
Experimental: Each of the three subjects was unresponsive to cyclosporine eye drops or to lubricating drops which are the conventional treatments.
Subject 1 (person thirteen), Subject 2 (person twelve) and Subject 3 (person twelve) were treated with varying doses (2, 5 and 10 mg) taken before sleep or in the afternoon/evening hours, for initial periods of up to 2 weeks for each dose to establish optimal dosing, and followed for up to 12 months in total.

[10] = tested on: subject with androgenetic alopecia; assay: Treatment of androgenetic alopecia; type: in vivo, human; settings: person, 14 months in total
Experimental: A person was treated with varying doses (2 and 4 mg) taken in the morning or evening, for periods of 2 weeks for each dose and continued with the optimal dose for 14 months in total.

[11] = cited from earlier work
[12] = tested on: human subjects with intractable insomnia; assay: Insomnia treatment with low dose oral dipyridamole; type: in vivo
[13] = tested on: subjects with frequent viral infections (with upper respiratory symptoms); assay: Prevention and treatment of viral disease; type: in vivo, human
Experimental: Subject 1 (person eight), Subject 2 (person two), Subject 3, and Subject 4 were treated with varying doses (2, 5 and 10 mg) taken at any time during the day, for periods of 2 weeks for each dose, and thereafter continuously for up to 2 years.

[14] = tested on: subjects with erectile dysfunction; assay: Erectile dysfunction treatment with low dose oral dipyridamole; type: in vivo, human
From the text: Some subjects had either failed or could not tolerate conventional treatments.

[15] = tested on: subject with cancer-related bone pain; assay: Treatment of cancer-related bone pain; type: in vivo, human; settings: person, 2 mg in the early evening
Experimental: A person was treated with 2 mg taken in the early evening hours. The subject reported resolution of bone pain related to metastatic prostate cancer to the cervical spine within 4 days. The subject was previously dependent on the daily use of opiate pain medications for the past 6 months.

[16] = IV or oral 20-50 mg, followed up to 60 hours

OCCN(CCO)c1nc(N2CCCCC2)c2nc(N(CCO)CCO)nc(N3CCCCC3)c2n1 [dipyridamole]
outcome on pain related to chronic fibromyalgia ([1]; Subject 1, 2 mg once daily added to oxycodone): complete relief of pain | time to complete weaning off oxycodone while maintaining pain relief ([1]; Subject 2 (person twelve), 2 mg): ≤ 3 months | pain relief at 10 mg ([1]; Subject 2 (person twelve), 10 mg instead of 2 mg): negligible pain relief | duration of low dose dipyridamole use after which Percocet was weaned off ([1]; Subject 3 (person five), 2 mg): 2 months | white blood cell count after treatment [2]: 18,000 | PSA (Prostate Specific Antigen) after treatment [3]: 14 | potency after storage [4]: maintained its potency | outcome on recurrent sore throat [5]: complete resolution of recurrent sore throat | solubility in propylene glycol ([6]; propylene glycol): ≥ 10 mg per ml | solubility in propylene glycol ([6]; pure propylene glycol, dissolved at 5, 10 and 20 mg/mL): surprisingly soluble in propylene glycol | solubility in water ([6]; water): difficult to dissolve in water | duration of occasionally recurring symptoms [7]: 2 to 3 h | reduction in severity of occasionally recurring symptoms ([7]; recurrence once every few weeks): 70% | prior response of insomnia to low dose dipyridamole alone ([8]; six subjects, 1 or 2 mg daily): somewhat responsive | outcome on dry eye symptoms [9]: complete relief of dry eye symptoms | optimal dose for expansion of hairline, thicker hair, decreased hair loss and increased growth of chest and abdominal hair [10]: 4 mg | peak plasma concentration at steady state ([11]; 75 mg q.i.d.): 1.54 µg/mL | trough plasma concentration at steady state ([11]; 75 mg q.i.d.): 0.269 µg/mL | geometric mean peak plasma concentration at steady state ([11]; 75 mg t.d.s.): 1.86 µg/mL | geometric mean trough plasma concentration at steady state ([11]; 75 mg t.d.s.): 0.13 µg/mL | peak plasma concentration at steady state ([11]; 100 mg q.i.d.): 2.36 µg/mL | trough plasma concentration at steady state ([11]; 100 mg q.i.d.): 0.432 µg/mL | half-life, first phase of tri-exponential plasma decline ([11]; IV only, 20-50 mg, followed up to 60 hours): 5 min | half-life, second phase of tri-exponential plasma decline [11, 16]: 53 min | half-life, third phase of tri-exponential plasma decline [11, 16]: 600 to 720 min | time to peak plasma levels ([11]; humans, following oral administration): 1 to 3 h | distribution half-life ([11]; humans, intravenous (IV) administration): about 25 minutes | distribution half-life ([11]; humans, oral administration): about 3 hours | dose range in which dose linearity was demonstrated ([11]; single dose administration): 25 to 150 mg | effect on insomnia at 10 mg or more (conclusion of example) ([12]; 10 mg or more, 4 subjects): little or no effect | benefit on insomnia at 10 mg ([12]; Subject 1, 10 mg): negligible benefit compared to lower doses | optimal dose for ensuring an excellent night's sleep ([12]; Subject 1, oral, before sleep): 2 mg | duration of undisturbed sleep ([12]; Subject 2 (person nine), 2 mg): 6-8 hours per night | optimal dose for ensuring an excellent, undisturbed sleep ([12]; Subject 2 (person nine), oral, before sleep): 2 mg | incidence of viral infections under treatment ([13]; Subject 3, 2 mg once daily, previously 5-6 times yearly): 1-2 times yearly | time to resolution of infection symptoms ([13]; Subject 3, 2 mg twice daily, previously 7-10 days): 1 to 2 days | effect of 10 mg dose on viral infection ([13]; Subject 3, 10 mg, one occasion): failed to deliver the same benefit as the 2 mg dose | optimal dose for reducing incidence of viral infections ([13]; Subject 3, once daily): 2 mg | recurrence of infections ([13]; Subject 4, 2 mg daily for 10 months, previously every 3-4 months): without any recurrence of infections | time to complete relief of symptoms of severe viral infection ([13]; Subject 4, 2 mg twice daily, upper respiratory symptoms plus viral conjunctivitis): 1 to 2 days | optimal dose for complete restoration of erectile function ([14]; Subject 1, daily at night): 2 mg | time to restoration of erectile function ([14]; Subject 3 (person seven), 2 mg): ≤ 10 days | effect on erectile function at 10 mg daily ([14]; Subject 3 (person seven), 10 mg daily): the beneficial effect was lost | time to resolution of erectile dysfunction ([14]; Subject 4, 2 mg): ≤ 5 days | time to resolution of erectile dysfunction ([14]; Subject 5, 2 mg): ≤ 2 weeks | effect of 10 mg compared with 5 mg ([14]; Subject 5, 10 mg): did not produce the same benefit as 5 mg | effect when taken with food ([14]; Subject 5, taken with food): 2 mg was not that effective but 5 mg was | time to resolution of bone pain related to metastatic prostate cancer to the cervical spine [15]: ≤ 4 days

COc1ccc2[nH]cc(CCNC(C)=O)c2c1 [melatonin]
prior response of insomnia to melatonin alone ([8]; six subjects with treatment-refractory insomnia): unresponsive

From patent publication US20180289708A1 (priority 2015, published 2018)
